Laboratory results taken from the supplement of paper PMC10307832.

Columns and labels:
Assay in all cases: relative viability (nuclei count vs DMSO), 5 days (fraction); higher = more cells survive
Fedratinib + Tozasertib = compound: Cc1cnc(Nc2ccc(OCCN3CCCC3)cc2)nc1Nc1cccc(S(=O)(=O)NC(C)(C)C)c1 [Fedratinib] + Cc1cc(Nc2cc(N3CCN(C)CC3)nc(Sc3ccc(NC(=O)C4CC4)cc3)n2)n[nH]1 [Tozasertib] (partner 0.1 µM)
Summary of the method: (§1)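 Lung cancer cell lines were pin-tool dosed in 1536-well plates on the day after seeding, with either a lone drug or a fixed anchor-drug dose plus five library-drug doses (not always all listed) in √10 steps. Nuclei were counted on 4× images after 5 days. Relative viability is the ratio of treated-well to vehicle-well nuclei counts, with each value a median of duplicate plates.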

Fedratinib + Bortezomib = compound: Cc1cnc(Nc2ccc(OCCN3CCCC3)cc2)nc1Nc1cccc(S(=O)(=O)NC(C)(C)C)c1 [Fedratinib] + CC(C)C[C@H](NC(=O)[C@H](Cc1ccccc1)NC(=O)c1cnccn1)B(O)O [Bortezomib] (partner 0.002 µM)
Summary of the method: as §1

Fedratinib + Linsitinib = compound: Cc1cnc(Nc2ccc(OCCN3CCCC3)cc2)nc1Nc1cccc(S(=O)(=O)NC(C)(C)C)c1 [Fedratinib] + C[C@]1(O)C[C@@H](c2nc(-c3ccc4ccc(-c5ccccc5)nc4c3)c3c(N)nccn32)C1 [Linsitinib] (partner 1 µM)
Summary of the method: as §1

GW-2580 + Olaparib = compound: COC1=CC=C(C=C1)COC2=C(C=C(C=C2)CC3=CN=C(N=C3N)N)OC [GW-2580] + O=C(c1cc(Cc2n[nH]c(=O)c3ccccc23)ccc1F)N1CCN(C(=O)C2CC2)CC1 [Olaparib] (partner 8 µM)
Summary of the method: as §1

GW-2580 + Alpelisib = compound: COC1=CC=C(C=C1)COC2=C(C=C(C=C2)CC3=CN=C(N=C3N)N)OC [GW-2580] + Cc1nc(NC(=O)N2CCC[C@H]2C(N)=O)sc1-c1ccnc(C(C)(C)C(F)(F)F)c1 [Alpelisib] (partner 2 µM)
Summary of the method: as §1

| Cell Line | relative viability (Fedratinib + Tozasertib; first compound 0.1 µM) | relative viability (Fedratinib + Tozasertib; first compound 0.3162 µM) | relative viability (Fedratinib + Tozasertib; first compound 1 µM) | relative viability (Fedratinib + Bortezomib; first compound 0.1 µM) | relative viability (Fedratinib + Bortezomib; first compound 0.3162 µM) | relative viability (Fedratinib + Bortezomib; first compound 1 µM) | relative viability (Fedratinib + Linsitinib; first compound 0.1 µM) | relative viability (Fedratinib + Linsitinib; first compound 0.3162 µM) | relative viability (Fedratinib + Linsitinib; first compound 1 µM) | relative viability (GW-2580 + Olaparib; first compound 0.08 µM) | relative viability (GW-2580 + Olaparib; first compound 0.8 µM) | relative viability (GW-2580 + Olaparib; first compound 2.53 µM) | relative viability (GW-2580 + Olaparib; first compound 8 µM) | relative viability (GW-2580 + Alpelisib; first compound 0.08 µM) | relative viability (GW-2580 + Alpelisib; first compound 0.8 µM) | relative viability (GW-2580 + Alpelisib; first compound 2.53 µM) | relative viability (GW-2580 + Alpelisib; first compound 8 µM) |
| --- | --- | --- | --- | --- | --- | --- | --- | --- | --- | --- | --- | --- | --- | --- | --- | --- | --- |
| SW 1573 | 0.148 | 0.21 | 0.14 | 1.05 | 0.911 | 0.983 | 0.683 | 0.768 | 0.802 | 0.477 | 0.474 | 0.492 | 0.543 | 0.841 | 0.797 | 0.698 | 0.674 |
| NCI-H727 | 0.493 | 0.823 | 0.656 | 0.655 | 0.733 | 0.178 | 0.2 | 0.213 | 0.335 | 0.637 | 0.63 | 0.699 | 0.69 | 0.664 | 0.594 | 0.615 | 0.453 |
| NCI-H441 | 0.412 | 0.538 | 0.575 | 0.538 | 0.484 | 0.236 | 0.518 | 0.442 | 0.343 | 0.644 | 0.582 | 0.555 | 0.585 | 0.972 | 0.853 | 0.718 | 0.699 |
| LOU-NH91 | 0.388 | 0.73 | 0.64 | 0.449 | 0.526 | 0.468 | 0.844 | 1.08 | 0.831 | 0.916 | 0.946 | 0.897 | 0.98 | 0.677 | 0.756 | 0.635 | 0.688 |
| NCI-H3122 | 0.259 | 0.362 | 0.299 | 0.991 | 0.981 | 0.485 | 1.02 | 1.01 | 0.948 | 0.682 | 0.739 | 0.675 | 0.648 | 0.85 | 0.878 | 0.671 | 0.758 |
| NCI-H460 | 0.078 | 0.379 | 0.334 | 1.84 | 1.13 | 1.04 | 0.806 | 0.773 | 0.52 | 0.379 | 0.508 | 0.516 | 0.353 | 0.49 | 0.464 | 0.44 | 0.511 |
| NCI-H650 | 0.312 | 0.764 | 0.69 |  | 0.84 | 0.77 |  | 0.994 | 0.596 | 0.373 | 0.379 | 0.364 | 0.472 | 1.26 | 1.06 | 0.914 | 1.14 |
| NCI-H661 | 0.327 | 0.326 | 0.371 | 0.81 | 0.894 | 0.9 | 0.512 | 0.533 | 0.622 | 0.807 | 0.813 | 0.722 | 0.665 | 0.542 | 0.835 | 0.426 | 0.479 |
| NCI-H1734 | 0.262 | 0.278 | 0.243 | 1.06 | 0.856 | 0.231 | 0.898 | 0.865 | 0.776 | 0.65 | 0.589 | 0.585 | 0.636 | 0.697 | 0.761 | 0.654 | 0.671 |
